Test results published in publication PMC5486114, “Interactions between a Heparin Trisaccharide Library and FGF-1 Analyzed by NMR Methods” (International Journal of Molecular Sciences, 2017).
Where two headings read alike, the source gives them in different places.

Assays:
Human recombinant FGF-1 [1] = target: T1, Human recombinant FGF-1 (Homo sapiens, UniProt P05230); experiment: STD-NMR initial growth rates (STD0) of trisaccharides in presence of FGF-1; format: binding; details: for STD0 H1-C: anomeric proton of ring C, 600 MHz, 289 K, protein 19 µM, ligand 1.6 mM; for Relative STD0 H1-A / Relative STD0 H1-B / Relative STD0 H1-C: relative to largest anomeric STD0 of the compound (=100)
T1 construct: Human recombinant FGF-1 consisting of 141 residues; purchased Peprotech; host or cells: E. coli
T1 sequence (P05230 with tags, fused parts or gaps limits assumed): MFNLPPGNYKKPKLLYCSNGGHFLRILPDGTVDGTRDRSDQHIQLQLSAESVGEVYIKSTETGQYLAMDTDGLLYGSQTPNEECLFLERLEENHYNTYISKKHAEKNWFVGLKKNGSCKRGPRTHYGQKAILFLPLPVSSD
Excerpt: STD-NMR [30] studies were acquired for all the trisaccharides in the library in presence of FGF-1 using the same experimental conditions (see material and methods). Transference of saturation for all trisaccharides probed the interaction with the protein. Nevertheless, in contrast to the case of Langerin interaction, the results differed between the different compounds, indicating the existence of some differences in binding. Unfortunately, the spectral crowding only allowed us to accurately integrate the three anomeric signals along the saturation times, see Figure 3. Using a methodology previously described for disconnect the effect from proton relaxation on the STD values at a given time, the values of the initial rate of growth of STD (STD0) for the considered signals were obtained for the signals under consideration (Figure 4, Table 1). The distribution of magnetization along the trisaccharide chain is rather homogeneous, and is compatible with an extended interaction along the positive cleft of FGF-1, where the main binding site is located.
STD-NMR Experiments. All the samples were prepared in 250 μL 5 mM phostate buffer at pH 6.0 and 100 mM NaCl in 99.9% D2O. The concentration of the protein was 19 µM, and the ligand was 1.6 mM. The ratio between the protein and ligand was 1:84. The experiments were performed at 289 K. STD-NMR experiments were carried out with spin-lock to suppress protein signals. Moreover, we tried to suppress the solvent using excitation sculpting with gradients, and we used a shaped pulse train for saturation, alternating between on and off resonance. The on-resonance and off-resonance frequencies were set to 0.7 and 40 ppm, respectively. A spoil sequence was used to destroy unwanted magnetization. The saturation times were 0.5, 1, 2, 3 and 4 s, with an additional delay set to 3.6, 3.1, 2.1, 1.1 and 0.1, respectively, in order to keep the relaxation delay constant at […] for all experiments. STD NMR experiments were performed with 2048 scans with a total experimental time for every point of 5 h.
The STD initial rates (STD0) were calculated from the curve of STD vs. saturation time. To do so, we utilized the equation: STD0(t) = a [1 − exp (−bt)], where a represents the asymptotic maximum of the STD build-up curve (STDmax), b is a rate constant that depends on the relaxation properties of a given proton that measures the rate of the STD build-up (Ksat), and t is the saturation time (tsat). The STD0 values were obtained as the product of the ab coefficients.

Human recombinant FGF-1 [2] = target: T1, Human recombinant FGF-1; experiment: as above; format: binding; details: 600 MHz, 289 K, protein 19 µM, ligand 1.6 mM; for STD0 H1-A: anomeric proton of ring A; for STD0 H1-B: anomeric proton of ring B
Human recombinant FGF-1 [3] = target: T1, Human recombinant FGF-1; experiment: IC50 by selective T1 (T1sel) NMR at different ligand concentrations; format: binding; details: T1sel method; 20 μM protein, ligand 80-640 μM
Experimental: (§1) IC50 values using STD-NMR were calculated for compound 1 at different concentrations based on the initial rates of the affinity factor method (Figure 5). […] In this case, due to the electrostatic nature of the complex, the gap between the protein and the ligand protons is very large, yielding low magnetization transfer values. On other hand, the small binding constant implies a large consumption of trisaccharide due to the high concentration needed to complete a meaningful titration curve. This, together with the large amount of time needed to record the full series of experiments, forced us to consider another method for the estimation of the IC50. Thus, we explored the IC50 calculation using selective T1 at different concentrations (Figure 6). Nevertheless, they are in agreement with the values obtained by Yu-Peng et al., when performing the same measure with disaccharides and FGF-2 by ITC [18].
Selective T1 NMR experiments. The samples were prepared using the same buffer at 20 μM protein concentration, while ligand concentration was 80, 160, 320, 480 and 640 μM. The ratios between protein and ligand were then 1:4, 1:8, 1:16, 1:24 and 1:32, respectively. We carry out studies on ^1H longitudinal relaxation rate (1/T1(sel). The relaxation times were measured by inversion recovery pulse sequence.
To determine the IC50, we adjusted the experimental values of the intensity signals vs. recovery delays to obtain an exponential function. We obtained the selective T1 value by f(t) = I0 × [1 − a × exp (−t/T1)]. In a ligand-receptor system where the ligand is present in large excess over the receptor binding sites, the ligand relaxation rate is describe by 1/T1obs = 1/T1free + fbound/(T1bound + tbound), where fbound is the fraction bound ([PL]/[L]) and τbound is the lifetime of the bound state. The relationship between total ligand concentration and T1 is then [P]0T1obs = ([L]0 + IC50)(T1bound + τbound), and a plot of [P]0 T1obs versus [L]0 gives a straight line with IC50 obtained from the intercept of the x axis.

Human recombinant FGF-1 [4] = target: T1, Human recombinant FGF-1; experiment: IC50 by STD-NMR, initial rates of the STD affinity factor (STD0-AF); format: binding; details: 600 MHz, 298 K; authors do not support validity of the result; read-out: IC50 (STD-NMR, STD0-AF method)
Experimental: as §1
STD-NMR Experiments. […]
IC50 was obtained using the initial rates of the STD affinity factor approximation. The STD-AF initial slopes (STD-AF0) were calculated as before from the curve of STD-AF vs. saturation time at several ligand concentrations. From these initial slopes, the binding isotherm was built (STD-AF0 vs. ligand concentration), and the curve fitted to a Langmuir equation, from which the IC50 value was determined.

[5] = target: WGA (Wheat Germen Agglutinin); details: reported value, no reference given; cited from earlier work
[6] = target: WGA (Wheat Germen Agglutinin); experiment: T1sel validation assay: binding of GlcNAc to WGA; details: T1sel method; lectin 20 uM; preliminary assay
Experimental: page 7: Calculation of Binding Constants using T1sel. We have used the T1sel method for the evaluation of the KD binding. In order to assess the validity of the method we performed a preliminary assay using the known system of the binding of GlcNAc to WGA (Wheat […] Agglutinin) using a concentration of lectin of 20 uM. […] T1sel method is described in the experimental section of the main paper. (1 picture or pasted object on this page, not shown here)

Structure (SMILES) | STD0 H1-C (Human recombinant FGF-1 [1]) | Relative STD0 H1-A (Human recombinant FGF-1 [1]) | Relative STD0 H1-B (Human recombinant FGF-1 [1]) | Relative STD0 H1-C (Human recombinant FGF-1 [1]) | STD0 H1-A (Human recombinant FGF-1 [2]) | STD0 H1-B (Human recombinant FGF-1 [2]) | IC50 (Human recombinant FGF-1 [3]) | IC50 (Human recombinant FGF-1 [4]) | Kd [5] | Kd [6]
CC(C)O[C@H]1O[C@H](CO)[C@@H](O[C@@H]2O[C@@H](C(=O)O)[C@@H](O[C@H]3O[C@H](CO)[C@@H](O)[C@H](O)[C@H]3NS(=O)(=O)O)[C@H](O)[C@H]2OS(=O)(=O)O)[C@H](O)[C@H]1NS(=O)(=O)O [Compound 7] | 0.11 | 100 | 48 | 64 | 0.18 | 0.08 | 46.7 ± 0.9 µM | – | – | –
CC(C)O[C@H]1O[C@H](COS(=O)(=O)O)[C@@H](O[C@@H]2O[C@@H](C(=O)O)[C@@H](O[C@H]3O[C@H](CO)[C@@H](O)[C@H](O)[C@H]3NS(=O)(=O)O)[C@H](O)[C@H]2OS(=O)(=O)O)[C@H](O)[C@H]1NS(=O)(=O)O [Compound 3] | 0.20 | 72 | 100 | 88 | 0.17 | 0.23 | 15.4 ± 0.4 µM | – | – | –
CC(C)O[C@H]1O[C@H](COS(=O)(=O)O)[C@@H](O[C@@H]2O[C@@H](C(=O)O)[C@@H](O[C@H]3O[C@H](COS(=O)(=O)O)[C@@H](O)[C@H](O)[C@H]3NS(=O)(=O)O)[C@H](O)[C@H]2OS(=O)(=O)O)[C@H](O)[C@H]1NS(=O)(=O)O [Compound 1] | 0.42 | 66 | 80 | 100 | 0.28 | 0.34 | 49.2 ± 0.3 µM | 1700 ± 10 µM | – | –
CC(=O)N[C@H]1[C@@H](OC(C)C)O[C@H](COS(=O)(=O)O)[C@@H](O[C@@H]2O[C@@H](C(=O)O)[C@@H](O[C@H]3O[C@H](CO)[C@@H](O)[C@H](O)[C@H]3NS(=O)(=O)O)[C@H](O)[C@H]2OS(=O)(=O)O)[C@@H]1O [Compound 4] | 0.24 | 67 | 100 | 94 | 0.17 | 0.25 | 84.7 ± 0.4 µM | 1700 µM | – | –
CC(C)O[C@H]1O[C@H](CO)[C@@H](O[C@@H]2O[C@@H](C(=O)O)[C@@H](O[C@H]3O[C@H](COS(=O)(=O)O)[C@@H](O)[C@H](O)[C@H]3NS(=O)(=O)O)[C@H](O)[C@H]2OS(=O)(=O)O)[C@H](O)[C@H]1NS(=O)(=O)O [Compound 5] | 0.06 | 100 | 82 | 87 | 0.07 | 0.06 | 50.6 ± 0.1 µM | – | – | –
CC(=O)N[C@H]1C(O)O[C@H](CO)[C@@H](O)[C@@H]1O (stereo partly shown) [GlcNAc] | – | – | – | – | – | – | – | – | 2500 µM | 2100 µM
CC(=O)N[C@H]1[C@@H](OC(C)C)O[C@H](CO)[C@@H](O[C@@H]2O[C@@H](C(=O)O)[C@@H](O[C@H]3O[C@H](COS(=O)(=O)O)[C@@H](O)[C@H](O)[C@H]3NS(=O)(=O)O)[C@H](O)[C@H]2OS(=O)(=O)O)[C@@H]1O [Compound 6] | 0.12 | 62 | 100 | 94 | 0.08 | 0.12 | 181 ± 5.5 µM | – | – | –
CC(=O)N[C@H]1[C@@H](OC(C)C)O[C@H](CO)[C@@H](O[C@@H]2O[C@@H](C(=O)O)[C@@H](O[C@H]3O[C@H](CO)[C@@H](O)[C@H](O)[C@H]3NS(=O)(=O)O)[C@H](O)[C@H]2OS(=O)(=O)O)[C@@H]1O [Compound 8] | 0.19 | – | 99 | 100 | – | 0.18 | 132 ± 1.8 µM | – | – | –
CC(=O)N[C@H]1[C@@H](OC(C)C)O[C@H](COS(=O)(=O)O)[C@@H](O[C@@H]2O[C@@H](C(=O)O)[C@@H](O[C@H]3O[C@H](COS(=O)(=O)O)[C@@H](O)[C@H](O)[C@H]3NS(=O)(=O)O)[C@H](O)[C@H]2OS(=O)(=O)O)[C@@H]1O [Compound 2] | 0.24 | 31 | 100 | 68 | 0.11 | 0.36 | 26.1 ± 0.7 µM | – | – | –
